# Article PMC12736951, “Design, Synthesis, and Biological Evaluation of 6″-Modified Apramycin Derivatives to Overcome Aminoglycoside Resistance” (Pharmaceutics, 2025)
# Assays:
# E. coli MAR17-1350 = test: MIC, MDR clinical isolate; format: cell-based; settings: Escherichia coli, MAR171350; E. coli MAR17-1350, MDR clinical isolate (NDM-5); read-out: MIC
# Text: (§1) The microbial strains used in this study were obtained from the collection of the Gause Institute of New Antibiotics. The control strains included in the analysis were S. aureus ATCC 29213, E. coli ATCC 25922, P. aeruginosa ATCC 27853, M. smegmatis ATCC 607. Clinical isolates E. coli MAR17-1350, K. pneumoniae APEX-5, K. pneumoniae MAR14-3395, and K. pneumoniae MAR18-1752 with multidrug resistance, including resistance to aminoglycosides were kindly provided by the Research Institute of Antimicrobial Chemotherapy (RIAC) of the Smolensk State Medical University, Smolensk. The microbial cultures were stored at −75 °C in trypticase soy broth (Becton, Dickinson, France) containing 10–15% glycerol. Storage was carried out in accordance with CLSI guidelines. Prior to experimentation, the bacterial strains were revived from cryopreservation by inoculating them onto trypticase soy agar (Becton, Dickinson, France) and incubating at (36 ± 1) °C for 16–24 h. Individual morphologically homogeneous colonies were then suspended in sterile physiological saline, and the turbidity of the suspension was adjusted to 0.5 McFarland units using a DEN-1 spectrophotometer (Biosan, Riga, Latvia), which corresponds to a concentration of 1.5 × 10^8 CFU/mL.
# (§2) The samples were dissolved in sterile distilled water, depending on the physicochemical properties of the compounds under investigation, to a concentration of 10,000 µg/mL. Working solutions were then prepared by serial dilution, resulting in concentrations ranging from 64 µg/mL to 0.125 µg/mL.
# (§3) Activity was evaluated by determining the minimum inhibitory concentration (MIC) values using the microdilution method in Mueller–Hinton Broth (Beckton and Dickinson, Le Pont-de-Claix, France), in accordance with the standard procedure for assessing the antimicrobial susceptibility of microorganisms.
# (§4) The analysis was conducted in 96-well microtiter plates (Medpolymer, Saint Petersburg, Russia). The bacterial inoculum was introduced within 15 min of preparation. MIC values were determined after incubation for 15–18 h at (36 ± 1) °C. Microbial growth in the presence of the tested compounds was compared to the growth control (without exposure to the test samples). The MIC was defined as the lowest concentration at which visible microbial growth was inhibited.
# (§5) To ensure the accuracy of the results, the control antibiotics kanamycin A, gentamycin, and tobramycin (Abcr GmbH, Karlsruhe, Germany) were included, along with standard reference strains: E. coli ATCC 25922. The MIC values for kanamycin A were determined as follows: E. coli ATCC 25922—1–4 µg/mL [22]. For gentamycin, the MIC values were E. coli ATCC 25922–0.25–1 µg/mL [23]. For tobramycin, the MIC values were E. coli ATCC 25922–0.25–1 µg/mL [23]. The MIC values of the reference strains were required to fall within the acceptable ranges specified in [24], provided that standard assay conditions were maintained.
# K. pneumoniae MAR18-1752 = test: MIC, MDR clinical isolate; format: cell-based; settings: Klebsiella pneumoniae, MAR181752; K. pneumoniae MAR18-1752, MDR clinical isolate (NDM-1); read-out: MIC
# Text: as §1, §2, §3, §4, §5
# K. pneumoniae APEX-5 = test: MIC, MDR clinical isolate; format: cell-based; settings: Klebsiella pneumoniae, APEX5; K. pneumoniae APEX-5, MDR clinical isolate (NDM-16); read-out: MIC
# Text: as §1, §2, §3, §4, §5
# K. pneumoniae MAR14-3395 = test: MIC, MDR clinical isolate; format: cell-based; settings: Klebsiella pneumoniae, MAR143395; K. pneumoniae MAR14-3395, MDR clinical isolate (NDM-1 + OXA-244); read-out: MIC
# Text: as §1, §2, §3, §4, §5
# S. aureus ATCC 29213 = test: MIC, broth microdilution; format: cell-based; settings: Staphylococcus aureus, ATCC29213, Table 1
# Text: as §1, §2, §3, §4, §5
# P. aeruginosa ATCC 27853 = test: MIC, broth microdilution; format: cell-based; settings: Pseudomonas aeruginosa, ATCC27853, Table 1
# Text: as §1, §2, §3, §4, §5
# [1] = system: HEK293T human embryonic kidney cell line; test: Cytotoxicity, MTT test; format: cell-based; settings: HEK-293T, 72 h, 2-250 µg/mL, read-out: IC50, viability of HEK293T cells
# Experimental: The MTT test was performed in order to evaluate the effect of the compounds on eukaryotic cells’ survivability. Compounds 5a,b, 8a,b, and apramycin, as the reference drug, were tested on HEK293T human embryonic kidney cell line (ATCC). Compounds 5a,b, 8a,b, and apramycin were prepared as water solutions with a 50 mg/mL concentration. The HEK293T cell line was cultivated in DMEM/F-12 medium (Paneco LLC, Moscow, Russia) containing 10% FBS, 50 µg/mL penicillin, and 50 µg/mL streptomycin (Thermo Fisher Scientific, USA) at 37 °C in 5% CO2. Triplicates on 96-well plates were used, and 2500 HEK293T cells were seeded in 140 µL of DMEM/F-12 medium in each well during day one. The next day, compounds in twofold successive dilutions were added to these plates (concentrations in wells ranged between 2 and 250 µg/mL for 5a, 5b, and 8a, 8b). Plates were incubated for 72 h at 37 °C in 5% CO2. Afterwards, 0.5 mg/mL of the MTT reagent (Paneco LLC, Moscow, Russia) was added to each well. After 2 h of incubation, the media with MTT was replaced with 140 µL of DMSO, and all plates were placed on a shaker for 10 min for formazan to dissolve. Finally, the absorbance at a 555 nm wavelength was measured on all plates via the plate reader Victor X5 (PerkinElmer, Waltham, MA, USA). The data were then normalized, and dose–response curves and IC50 were calculated by means of GraphPad Prism version 8.0.2. (GraphPad Software, Inc., San Diego, CA, USA).
# [2] = system: E. coli S30 Extract System, firefly luciferase synthesis; test: Cell-free translation inhibition assay; format: biochemical; settings: for inhibition of protein synthesis in vitro (firefly luciferase): 0.4 μM, E. coli S30 extract; for inhibitory effect on translation relative to apramycin (1): equivalent concentrations (0.4 μM)
# Experimental: The inhibitory effects of the compounds under investigation on in vitro firefly luciferase synthesis were evaluated using the E. coli S30 Extract System for Linear Templates (Promega, Madison, WI, USA), as previously described. The working concentration for all tested compounds in the in vitro translation reaction was 0.4 μM. As all compounds were diluted in water, it was used as the negative control.
Structure (SMILES),MIC (E. coli MAR17-1350),MIC (K. pneumoniae MAR18-1752),MIC (K. pneumoniae APEX-5),MIC (K. pneumoniae MAR14-3395),MIC (S. aureus ATCC 29213),MIC (P. aeruginosa ATCC 27853),IC50 [1],inhibition of protein synthesis in vitro (firefly luciferase) [2],inhibitory effect on translation relative to apramycin (1) [2]
"CNC1C(OC2OC(CNCCNC(=N)N)C(N)C(O)C2O)OC2CC(N)C(OC3C(N)CC(N)C(O)C3O)OC2C1O (stereo not drawn) [Compound 8a, 6″-((2-Guanidinoethyl-1)-amino)-6″-deoxyapramycin acetate]",4 µg/mL,2 µg/mL,1 µg/mL,2 µg/mL,0.5 µg/mL,8 µg/mL,> 250 µg/mL,inhibited protein synthesis in vitro,approximately one order of magnitude weaker
"CNC1C(OC2OC(CNCCCNC(=N)N)C(N)C(O)C2O)OC2CC(N)C(OC3C(N)CC(N)C(O)C3O)OC2C1O (stereo not drawn) [Compound 8b, 6″-((3-Guanidinopropyl-1)-amino)-6″-deoxyapramycin acetate]",4 µg/mL,2 µg/mL,2 µg/mL,4 µg/mL,0.5 µg/mL,8 µg/mL,> 250 µg/mL,inhibited protein synthesis in vitro,approximately one order of magnitude weaker
"CNC1C(OC2OC(CNCCN)C(N)C(O)C2O)OC2CC(N)C(OC3C(N)CC(N)C(O)C3O)OC2C1O (stereo not drawn) [Compound 5a, 6″-((2-Aminoethyl-1)-amino)-6″-deoxyapramycin acetate]",4 µg/mL,4 µg/mL,4 µg/mL,4 µg/mL,2 µg/mL,8 µg/mL,243 ± 7 µg/mL,inhibited protein synthesis in vitro,approximately one order of magnitude weaker
"CNC1C(OC2OC(CNCCCN)C(N)C(O)C2O)OC2CC(N)C(OC3C(N)CC(N)C(O)C3O)OC2C1O (stereo not drawn) [Compound 5b, 6″-((3-Aminopropyl-1)-amino)-6″-deoxyapramycin acetate]",8 µg/mL,8 µg/mL,8 µg/mL,8 µg/mL,2 µg/mL,16 µg/mL,> 250 µg/mL,inhibited protein synthesis in vitro,approximately one order of magnitude weaker
